Laboratory results: US9522177B2, “Antimicrobial and immunostimulatory system comprising an oxidoreductase enzyme” (Institute of Technology Sligo, priority 2006, dated 2016)

Columns and labels:
[1] = test system: clinical isolates of Mastitis causing Staphylococcus aureus; experiment: Inhibition assay (3 day repeats), mastitis isolates; type: cell-based; conditions: for sensitivity of clinical isolate number 15: Mastitis causing Staphylococcus aureus isolate number 15, FIG. 11b
Procedure: 22 isolates of Staphylococcus aureus from clinical mastitis obtained from Sligo regional Veterinary Laboratories are grown on nutrient agar or in nutrient broth for 24 hrs at 37° C.
Agar plates are inoculated by swabbing overnight culture onto the plate surface. Plates are allowed to stand at room temperature for 15 minutes before use. Wells 8.2 mm diameter are bored into the surface of the agar. One hundred and eighty μl of sample is placed into each well. The samples diffuse into the agar around the well and are assayed for an ability to produce a zone of inhibition. Plates are incubated for 24, 48 or 72 hrs and zones of inhibition are measured using an Autodata automatic zone reader. The diameter of zones, including the diameter of the well (8.2 mm), is recorded.

L929 cells = experiment: ISO 10993-5 agar overlay cytotoxicity (neutral red); conditions: positive control, 24 hrs
Procedure: ISO 10993, agar overlay tests for cytotoxicity: in vitro method is also used, employing L929 cells (mouse fibroblasts ECACC 85011425). In brief; a confluent monolayer of cells is incubated, this is then covered with a layer fresh medium (EMEM, 2 mM L-Glutamine, 5% FBS, 2% Penicillin-Streptomycin) containing 1.5 g/l of soft agar and allowed to solidify. One tenth of the surface is covered with test materials (previously described) and incubated for 24 hrs. Post incubation the test material is carefully removed and a vital stain (neutral red) in fresh media added. After incubation this is removed, the cells washed and then the dye extracted from the cells and quantified spectrophotometrically for cell viability.
Percent toxicity was calculated according to the formula: % Toxicity=1−(OD average of test material wells/average OD of corresponding control wells (sodium azide added))×100. Included in the assay are a 50% concentration of A^3IS, a range of concentrations of commercial silver containing gel and commercial zinc containing gel product, compared to sodium azide (positive control). […] For the agar overlay toxicity assay the amount of test materials used was similar to that used for the initial direct contact assays of 100 mg per well however the contact time was extended to 24 hrs.

Molecule	sensitivity of clinical isolate number 15 [1]	also measured
Nisin [2% Nisin]		resistant colonies in zone of inhibition assays ([1]; FIG. 11e): resistant colony within the zone of inhibition
O=C(N[C@H](CO)[C@H](O)c1ccc([N+](=O)[O-])cc1)C(Cl)Cl [Chloramphenicol]	only mild sensitivity	
[N-]=[N+]=[N-] [sodium azide]		% Toxicity (L929 cells): 100%
CN[C@H](CC(C)C)C(=O)N[C@H]1C(=O)N[C@@H](CC(N)=O)C(=O)N[C@H]2C(=O)N[C@H]3C(=O)N[C@H](C(=O)N[C@H](C(=O)O)c4cc(O)cc(O)c4-c4cc3ccc4O)[C@H](O)c3ccc(c(Cl)c3)Oc3cc2cc(c3O[C@@H]2O[C@H](CO)[C@@H](O)[C@H](O)[C@H]2O[C@H]2C[C@](C)(N)[C@H](O)[C@H](C)O2)Oc2ccc(cc2Cl)[C@H]1O [Vancomycin]	resistant	
[H]/N=C(/N)N[C@H]1[C@H](O)[C@@H](O)[C@H](O[C@@H]2O[C@@H](C)[C@](O)(C=O)[C@H]2O[C@@H]2O[C@@H](CO)[C@H](O)[C@@H](O)[C@@H]2NC)[C@@H](N/C(N)=N\[H])[C@@H]1O [Streptomycin]	resistant	
